pIC50: −log10 of the molar value.
What follows are molecules tested against T1, aurora-A (human) (Homo sapiens, UniProt O14965) (assay: Aurora-A (human) kinase assay). Conditions: read-out: Activity (Aurora A activity, IC50 grading).
T1 construct: purchased Upstate, Dundee, UK
T1 sequence (O14965 1-403): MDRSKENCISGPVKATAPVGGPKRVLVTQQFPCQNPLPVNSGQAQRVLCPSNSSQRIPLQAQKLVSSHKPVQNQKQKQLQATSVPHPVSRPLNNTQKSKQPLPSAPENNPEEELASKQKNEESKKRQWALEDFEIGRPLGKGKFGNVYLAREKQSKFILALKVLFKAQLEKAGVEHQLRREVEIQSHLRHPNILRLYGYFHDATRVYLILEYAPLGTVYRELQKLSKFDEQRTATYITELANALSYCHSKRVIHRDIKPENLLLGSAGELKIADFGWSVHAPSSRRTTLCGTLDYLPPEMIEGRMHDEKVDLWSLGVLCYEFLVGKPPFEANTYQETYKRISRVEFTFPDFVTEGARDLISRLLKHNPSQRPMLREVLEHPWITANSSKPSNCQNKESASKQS
Type: biochemical
Protocol: This was achieved by measurement of incorporation of radioactive phosphate from ATP into Kemptide substrate (LRRASLG), upon phosphorylation by commercially obtained aurora-A (human, Upstate; Dundee, UK). Assays were performed using 96-well plates and appropriate assay buffers (20 mM Tris, 25 mM β-glycerophosphate, 5 mM EGTA, 1 mM DTT, 1 mM sodium vanadate, pH 7.5), into which were added 2-5 ng of active enzyme with 500 μM substrate (Kemptide). The reactions were initiated by addition of MATP mix (15 mM MgCl2+100 μM ATP with 15-25 kBq per well of [γ-^32P]-ATP) and mixtures incubated for 30 min at 30° C. Reactions were stopped by addition of an equal volume of 75 mM aq orthophosphoric acid, followed by filtration through p81 filterplates (Whatman Polyfiltronics, Kent, UK). After washing 4 times with 75 mM aq orthophosphoric acid, plates were dried, scintillant added and incorporated radioactivity measured in a scintillation counter (TopCount, Packard Instruments, Pangbourne, Berks, UK). Compounds for kinase assay were made up as 10 mM stocks in DMSO and diluted into 10% DMSO in assay buffer. Data was analysed using curve-fitting software (XLfit version 4.0.2, IDBS, Guildford, Surrey, UK) to determine IC50 values (concentration of test compound which inhibits kinase activity by 50%).

| Structure (SMILES) | pIC50 |
| --- | --- |
| COc1cc(C(=O)O)ccc1Nc1nccc(-c2c(C)c3n(c2C)CCNC3=O)n1 [Example I-27, 4-[4-(6,8-Dimethyl-1-oxo-1,2,3,4-tetrahydro-pyrrolo[1,2-a]pyrazin-7-yl)-pyrimidin-2-ylamino]-3-methoxy-benzoic acid] | > 6.00 |
| COc1ccc(Nc2nccc(-c3c(C)c4n(c3C)CCNC4=O)n2)cc1O [Example I-28, 7-[2-(3-Hydroxy-4-methoxy-phenylamino)-pyrimidin-4-yl]-6,8-dimethyl-3,4-dihydro-2H-pyrrolo[1,2-a]pyrazin-1-one] | > 6.00 |
| Cc1c(-c2ccnc(Nc3ccc4c(c3)OCO4)n2)c(C)n2c1C(=O)NCC2 [Example I-29, 7-[2-(Benzo-[1,3]dioxol-5-ylamino)-pyrimidin-4-yl]-6,8-dimethyl-3,4-dihydro-2H-pyrrolo[1,2-a]pyrazin-1-one] | > 6.00 |
| Cc1c(-c2ccnc(Nc3cccc(OC(F)(F)F)c3)n2)c(C)n2c1C(=O)NCC2 [Example I-30, 6,8-Dimethyl-7-[2-(3-trifluoromethoxy-phenylamino)pyrimidin-4-yl]-3,4-dihydro-2H-pyrrolo[1,2-a]pyrazin-1-one] | > 5.00 |
| Cc1c(-c2ccnc(Nc3cccc(O)c3)n2)c(C)n2c1C(=O)NCC2 [Example I-31, 7-[2-(3-Hydroxy-phenylamino)-pyrimidin-4-yl]-6,8-dimethyl-3,4-dihydro-2H-pyrrolo[1,2-a]pyrazin-1-one] | > 6.00 |
| Cc1c(-c2ccnc(Nc3cccc(S(C)(=O)=O)c3)n2)c(C)n2c1C(=O)NCC2 [Example I-32, 7-[2-(3-Methanesulfonyl-phenylamino)-pyrimidin-4-yl]-6,8-dimethyl-3,4-dihydro-2H-pyrrolo[1,2-a]pyrazin-1-one] | > 7.00 |
| Cc1c(-c2ccnc(Nc3ccc(S(C)(=O)=O)cc3)n2)c(C)n2c1C(=O)NCC2 [Example I-33, 7-[2-(4-Methanesulfonyl-phenylamino)-pyrimidin-4-yl]-6,8-dimethyl-3,4-dihydro-2H-pyrrolo[1,2-a]pyrazin-1-one] | > 7.00 |
| Cc1c(-c2ccnc(Nc3cccc(CCC(=O)O)c3)n2)c(C)n2c1C(=O)NCC2 [Example I-34, 3-{3-[4-(6,8-Dimethyl-1-oxo-1,2,3,4-tetrahydro-pyrrolo[1,2-a]pyrazin-7-yl)-pyrimidin-2-ylamino]-phenyl}-propionic acid] | > 7.00 |
| Cc1c(-c2ccnc(Nc3cccc(S(=O)(=O)N4CCOCC4)c3)n2)c(C)n2c1C(=O)NCC2 [Example I-35, 8-Dimethyl-7-{2-[3-(morpholine-4-sulfonyl)-phenylamino]-pyrimidin-4-yl}-3,4-dihydro-2H-pyrrolo[1,2-a]pyrazin-1-one] | > 6.00 |
| Cc1ccc(Nc2nccc(-c3c(C)c4n(c3C)CCNC4=O)n2)cc1S(=O)(=O)N1CCOCC1 [Example I-36, 6,8-Dimethyl-7-{2-[4-methyl-3-(morpholine-4-sulfonyl)-phenylamino]-pyrimidin-4-yl}-3,4-dihydro-2H-pyrrolo[1,2-a]pyrazin-1-one] | > 6.00 |
| Cc1c(-c2ccnc(Nc3ccc(N4CCSCC4)cc3)n2)c(C)n2c1C(=O)NCC2 [Example I-37, 6,8-Dimethyl-7-[2-(4-thiomorpholin-4-yl-phenylamino)-pyrimidin-4-yl]-3,4-dihydro-2H-pyrrolo[1,2-a]pyrazin-1-one] | > 6.00 |
| COCCNS(=O)(=O)c1ccc(Nc2nccc(-c3c(C)c4n(c3C)CCNC4=O)n2)cc1 [Example I-38, 4-[4-(6,8-Dimethyl-1-oxo-1,2,3,4-tetrahydro-pyrrolo[1,2-a]pyrazin-7-yl)-pyrimidin-2-ylamino]-N-(2-methoxy-ethyl)-benzenesulfonamide] | > 6.00 |
| Cc1ccc(Nc2nccc(-c3c(C)c4n(c3C)CCNC4=O)n2)cc1 [Example I-39, 6,8-Dimethyl-7-(2-p-tolylamino-pyrimidin-4-yl)-3,4-dihydro-2H-pyrrolo[1,2-a]pyrazin-1-one] | > 6.00 |
| Cc1c(-c2ccnc(Nc3ccc(C(C)C(=O)O)cc3)n2)c(C)n2c1C(=O)NCC2 (centres unmarked) [Example I-40, 2-{4-[4-(6,8-Dimethyl-1-oxo-1,2,3,4-tetrahydro-pyrrolo[1,2-a]pyrazin-7-yl)-pyrimidin-2-ylamino]-phenyl}-propionic acid] | > 6.00 |
| Cc1c(-c2ccnc(Nc3cccc(OCC(=O)O)c3)n2)c(C)n2c1C(=O)NCC2 [Example I-41, {3-[4-(6,8-Dimethyl-1-oxo-1,2,3,4-tetrahydro-pyrrolo[1,2-a]pyrazin-7-yl)-pyrimidin-2-ylamino]-phenoxy}-acetic acid] | > 7.00 |
| Cc1c(-c2ccnc(Nc3cccc(NS(C)(=O)=O)c3)n2)c(C)n2c1C(=O)NCC2 [Example I-42, N-{3-[4-(6,8-Dimethyl-1-oxo-1,2,3,4-tetrahydro-pyrrolo[1,2-a]pyrazin-7-yl)-pyrimidin-2-ylamino]-phenyl}-methanesulfonamide] | > 6.00 |
| CNS(=O)(=O)c1ccc(Nc2nccc(-c3c(C)c4n(c3C)CCNC4=O)n2)cc1OC [Example I-43, 4-[4-(6,8-Dimethyl-1-oxo-1,2,3,4-tetrahydropyrrolo[1,2-a]pyrazin-7-yl)-pyrimidin-2-ylamino]-2-methoxy-N-methyl-benzenesulfonamide] | > 6.00 |
| Cc1c(-c2ccnc(Nc3ccc(N4CCOC4=O)cc3)n2)c(C)n2c1C(=O)NCC2 [Example I-44, 6,8-Dimethyl-7-{2-[4-(2-oxo-oxazolidin-3-yl)-phenylamino]-pyrimidin-4-yl}-3,4-dihydro-2H-pyrrolo[1,2-a]pyrazin-1-one] | > 6.00 |
| Cc1c(-c2ccnc(Nc3ccc4c(c3)COCO4)n2)c(C)n2c1C(=O)NCC2 [Example I-45, 7-[2-(4H-Benzo[1,3]dioxin-6-ylamino)-pyrimidin-4-yl]-6,8-dimethyl-3,4-dihydro-2H-pyrrolo[1,2-a]pyrazin-1-one] | > 7.00 |
| Cc1nccc(-c2cccc(Nc3nccc(-c4c(C)c5n(c4C)CCNC5=O)n3)c2)n1 [Example I-46, 6,8-Dimethyl-7-{2-[3-(2-methyl-pyrimidin-4-yl)-phenylamino]-pyrimidin-4-yl}-3,4-dihydro-2H-pyrrolo[1,2-a]pyrazin-1-one] | > 7.00 |
| CC(=O)Nc1ccc(Nc2nccc(-c3c(C)c4n(c3C)CCNC4=O)n2)cc1Cl [Example I-47, N-{2-Chloro-4-[4-(6,8-dimethyl-1-oxo-1,2,3,4-tetrahydro-pyrrolo[1,2-a]pyrazin-7-yl)-pyrimidin-2-ylamino]-phenyl}-acetamide] | > 6.00 |
| Cc1cc2cc(Nc3nccc(-c4c(C)c5n(c4C)CCNC5=O)n3)ccc2[nH]1 [Example I-48, 6,8-Dimethyl-7-[2-(2-methyl-1H-indol-5-ylamino)-pyrimidin-4-yl]-3,4-dihydro-2H-pyrrolo[1,2-a]pyrazin-1-one] | > 6.00 |
| Cc1c(-c2ccnc(Nc3cccc(-c4cnco4)c3)n2)c(C)n2c1C(=O)NCC2 [Example I-49, 6,8-Dimethyl-7-[2-(3-oxazol-5-yl-phenylamino)-pyrimidin-4-yl]-3,4-dihydro-2H-pyrrolo[1,2-a]pyrazin-1-one] | > 6.00 |
| Cc1c(-c2ccnc(Nc3ccc(S(=O)(=O)N4CCOCC4)cc3)n2)c(C)n2c1C(=O)NCC2 [Example I-50, 6,8-Dimethyl-7-{2-[4-(morpholine-4-sulfonyl)-phenylamino]-pyrimidin-4-yl}-3,4-dihydro-2H-pyrrolo[1,2-a]pyrazin-1-one] | > 6.00 |
| Cc1c(-c2ccnc(Nc3ccc(OCCN4CCOCC4)cc3)n2)c(C)n2c1C(=O)NCC2 [Example I-51, 6,8-Dimethyl-7-{2-[4-(2-morpholin-4-yl-ethoxy)-phenylamino]-pyrimidin-4-yl}-3,4-dihydro-2H-pyrrolo[1,2-a]pyrazin-1-one] | > 6.00 |
| Cc1c(-c2ccnc(Nc3ccc(-c4cnco4)cc3)n2)c(C)n2c1C(=O)NCC2 [Example I-52, 6,8-Dimethyl-7-[2-(4-oxazol-5-yl-phenylamino)-pyrimidin-4-yl]-3,4-dihydro-2H-pyrrolo[1,2-a]pyrazin-1-one] | > 6.00 |
| Cc1c(-c2ccnc(Nc3cccc(-c4cncnc4)c3)n2)c(C)n2c1C(=O)NCC2 [Example I-53, 6,8-Dimethyl-7-[2-(3-pyrimidin-5-yl-phenylamino)-pyrimidin-4-yl]-3,4-dihydro-2H-pyrrolo[1,2-a]pyrazin-1-one] | > 7.00 |
| Cc1c(-c2ccnc(Nc3ccc(Cc4ccncc4)cc3)n2)c(C)n2c1C(=O)NCC2 [Example I-54, 6,8-Dimethyl-7-[2-(4-pyridin-4-ylmethyl-phenylamino)-pyrimidin-4-yl]-3,4-dihydro-2H-pyrrolo[1,2-a]pyrazin-1-one] | > 6.00 |
| Cc1c(-c2ccnc(Nc3ccc(S(=O)(=O)N4CCCC4)cc3)n2)c(C)n2c1C(=O)NCC2 [Example I-55, 6,8-Dimethyl-7-{2-[4-(pyrrolidine-1-sulfonyl)-phenylamino]-pyrimidin-4-yl}-3,4-dihydro-2H-pyrrolo[1,2-a]pyrazin-1-one] | > 6.00 |

Reference: patent US8404692B2, “Pyrimidin-4-yl-3, 4-dihydro-2H-pyrrolo [1,2A] pyrazin-1-one compounds” (Cyclacel Limited, priority 2005, dated 2013)
